Where a name gives a salt, the structure may show the parent alone.
What was measured:
[1] = Release profile of phenylephrine hydrochloride from drug-resin complex with a 25% coating (Table V); format: physicochemical
[2] = Release of both drugs from coated layer loaded compound B-phenylephrine HCl-IRP-69 drug-resin complex (Table VII); format: physicochemical; conditions: from coated layer loaded compound B-phenylephrine HCl-IRP-69 complex
Procedure: The present invention also provides compositions and methods of releasing two or more pharmaceutical compositions. For example, a phenylephrine HCl and IRP-69 drug-resin complex is prepared using any of the methods disclosed herein or as disclosed in the prior art. The phenylephrine HCl and IRP-69 drug-resin complex is directly loaded with a second drug (e.g., compound B) by spray applying a solution containing compound B to the phenylephrine HCl-IRP-69 drug-resin complex. This layer loaded complex (compound B-phenylephrine HCl-IRP-69 drug-resin complex) is then coated as previously described.

CNC[C@H](O)c1cccc(O)c1 [Phenylephrine Hydrochloride]
% Released ([1]; 0.5 hr): 25.5%
% Released ([1]; 1.0 hr): 30.5%
% Released ([1]; 3.0 hr): 61.0%
% Released ([1]; 6.0 hr): 93.0%
% Released ([1]; 12.0 hr): 97.0%
Released ([2]; 0.5 hour): 48%
Released ([2]; 1.0 hour): 55%
Released ([2]; 1.5 hour): 76%
Released ([2]; 2.0 hour): 81%
Released ([2]; 4.0 hour): 92%

Reference: patent publication US8883213B2, “Ion exchange resin treated to control swelling” (Coating Place, Inc., priority 2005, dated 2014)
